Assays:
PARG [1] = molecular target: T1, PARG (Homo sapiens, UniProt Q86W56); assay: In vitro inhibition of PARG; format: biochemical; parameters: H. sapiens full length PARG; trigger factor (TF) fusion of the pColdTF vector; made in house; host or cells: Rosetta2 (DE3) E. coli; conditions: dose-response, FIG. 4C
ARH3 [2] = molecular target: T2, ARH3 (Homo sapiens, UniProt Q9NX46); assay: In vitro inhibition of purified ARH3; format: biochemical; parameters: H. sapiens full length ARH3; His6 (N); made in house; host or cells: Rosetta2 (DE3) E. coli; conditions: mixture of anomers
T2 sequence (Q9NX46 1-363): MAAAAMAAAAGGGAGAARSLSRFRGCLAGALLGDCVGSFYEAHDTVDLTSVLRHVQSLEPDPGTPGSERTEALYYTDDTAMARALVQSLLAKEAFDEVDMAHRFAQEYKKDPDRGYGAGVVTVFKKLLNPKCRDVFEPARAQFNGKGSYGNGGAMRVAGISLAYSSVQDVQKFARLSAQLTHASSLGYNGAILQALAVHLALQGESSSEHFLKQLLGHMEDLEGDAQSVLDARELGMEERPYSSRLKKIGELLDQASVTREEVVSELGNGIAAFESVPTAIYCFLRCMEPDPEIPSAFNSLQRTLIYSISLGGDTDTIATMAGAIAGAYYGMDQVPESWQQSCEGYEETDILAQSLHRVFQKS

[3] = molecular target: T3, H. sapiens full length PARG (Homo sapiens, UniProt Q86W56); assay: In vitro enzyme kinetics of substrate hydrolysis; format: biochemical; conditions: hPARG
T3 construct: H. sapiens full length PARG; trigger factor (TF) fusion of the pColdTF vector; made in house; host or cells: Rosetta2 (DE3) E. coli
T3 sequence (Q86W56 whole entry, the tested form may be a part): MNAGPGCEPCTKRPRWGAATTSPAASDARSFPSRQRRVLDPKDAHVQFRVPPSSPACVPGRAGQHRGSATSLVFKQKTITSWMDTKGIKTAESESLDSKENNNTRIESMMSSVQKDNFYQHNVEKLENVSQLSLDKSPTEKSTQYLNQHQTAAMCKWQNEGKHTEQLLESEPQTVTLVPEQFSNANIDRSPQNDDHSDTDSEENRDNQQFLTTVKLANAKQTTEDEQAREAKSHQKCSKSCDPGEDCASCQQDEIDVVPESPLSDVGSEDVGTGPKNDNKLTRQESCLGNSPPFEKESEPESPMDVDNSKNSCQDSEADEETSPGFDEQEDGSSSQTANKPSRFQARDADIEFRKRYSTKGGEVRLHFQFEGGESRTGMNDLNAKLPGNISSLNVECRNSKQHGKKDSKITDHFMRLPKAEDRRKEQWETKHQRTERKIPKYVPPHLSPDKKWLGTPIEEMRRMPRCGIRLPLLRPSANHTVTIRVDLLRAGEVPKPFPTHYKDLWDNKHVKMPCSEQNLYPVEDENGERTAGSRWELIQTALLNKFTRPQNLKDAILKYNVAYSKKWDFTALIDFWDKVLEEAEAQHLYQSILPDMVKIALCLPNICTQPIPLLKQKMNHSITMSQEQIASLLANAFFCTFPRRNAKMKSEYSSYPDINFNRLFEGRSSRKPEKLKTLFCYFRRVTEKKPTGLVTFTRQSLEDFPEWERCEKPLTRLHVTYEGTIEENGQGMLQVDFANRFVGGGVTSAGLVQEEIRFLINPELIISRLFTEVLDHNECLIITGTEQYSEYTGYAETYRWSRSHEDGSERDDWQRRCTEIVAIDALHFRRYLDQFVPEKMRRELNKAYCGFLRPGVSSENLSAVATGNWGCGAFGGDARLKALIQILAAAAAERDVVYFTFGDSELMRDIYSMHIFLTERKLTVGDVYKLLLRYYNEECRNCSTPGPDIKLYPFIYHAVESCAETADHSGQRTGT

ARH3 [4] = assay: Substrate hydrolysis in lysate of ARH3 knockout U2OS cells; format: biochemical; conditions: U2OS cell lysate, 200 μM substrate
Protocol: (§1) The ability of TFMU-IDPr to selectively report on ARH3 activity within the cellular milieu would be an important application of these probes. […] First, the hydrolysis of TFMU-IDPr was evaluated in cell lysate from a ARH3 knockout isogenic cell line pair derived from U2OS cells. […] Second, substrate processing was evaluated in the presence of the selective PARG inhibitor PDD00017273. […] Taken together, these experiments indicate that TFMU-IDPr is selectively cleaved by ARH3 in cell lysate, and TFMU-ADPr is cleaved only by ARH3 and PARG.
(§2) Cells were cultured in T75 flasks in appropriate medium. Cells were trypsinized, and scrapped (if necessary), and counted. 1×10^6 cells were harvested and washed with cold PBS 2×. Cell pellet was lysed by addition of activity lysis buffer (150 μL) and incubated on ice for 30 min. Lysate was clarified by centrifugation at 14,300×g at 4° C. for 10 min. Supernatant was transferred to chilled, empty 500 μL tube. Total protein content of lysate was evaluated by BCA assay. ARH3 expression level was determined by western blotting analysis. 5 μL lysate was added to well of 384-well black plate. 45 μL TFMU-IDPr (200 μM final) in reaction buffer was added to well. Reaction progress was monitored by fluorescent plate reader (ex 385 nm, cutoff 495, em 502 nm, 6 reads/well, high gain).

[5] = leaving groups pNP and TFMU; cited from earlier work
[6] = molecular target: T4, H. sapiens full length ARH3 (Homo sapiens, UniProt Q9NX46); assay: In vitro enzyme kinetics of substrate hydrolysis
T4 sequence (Q9NX46 1-363): T2 sequence (Q9NX46 1-363)

T. thermophila PARG = molecular target: T5, T. thermophila PARG (Tetrahymena thermophila, UniProt I6L8L7); format: biochemical; conditions: ttPARG
T5 construct: made in house; host or cells: Rosetta2 (DE3) E. coli
T5 sequence (I6L8L7 1-457): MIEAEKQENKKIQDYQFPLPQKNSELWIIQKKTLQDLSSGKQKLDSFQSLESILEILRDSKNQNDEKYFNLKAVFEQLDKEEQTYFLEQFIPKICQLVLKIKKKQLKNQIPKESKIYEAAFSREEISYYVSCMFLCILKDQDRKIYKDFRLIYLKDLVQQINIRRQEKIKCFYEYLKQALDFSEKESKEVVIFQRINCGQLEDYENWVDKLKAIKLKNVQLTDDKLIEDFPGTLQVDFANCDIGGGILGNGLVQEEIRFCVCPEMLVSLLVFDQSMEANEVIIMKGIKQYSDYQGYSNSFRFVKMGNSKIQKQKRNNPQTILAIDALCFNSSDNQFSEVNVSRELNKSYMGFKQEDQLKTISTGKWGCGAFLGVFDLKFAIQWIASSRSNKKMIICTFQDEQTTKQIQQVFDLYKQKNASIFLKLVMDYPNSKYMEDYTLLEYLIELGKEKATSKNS

PARG [7] = molecular target: T1, PARG; assay: Substrate hydrolysis in U2OS cell lysate in presence of PARG inhibitor PDD00017273; format: biochemical; parameters: endogenous in cells; host or cells: U2OS (parental and ARH3 knockout) lysate
Protocol: as §1, §2

ARH3 [8] = assay: Cell lysate ARH3 activity assay (survey of cell lines, TFMU-IDPr hydrolysis); format: biochemical; conditions: MEF cell lysate, 200 μM TFMU-IDPr
Protocol: as §2, with “ARH3 expression level was determined by western blotting analysis. 5 μL lysate was added to well of 384-well black plate. 45 μL TFMU-IDPr (200 μM final) in reaction buffer was added to well.” left out

ARH3 [9] = molecular target: T2, ARH3; assay: as above; format: biochemical; parameters: endogenous in cells; conditions: 200 μM TFMU-IDPr
Protocol: as §2, with “ARH3 expression level was determined by western blotting analysis. 5 μL lysate was added to well of 384-well black plate. 45 μL TFMU-IDPr (200 μM final) in reaction buffer was added to well.” left out

[10] = substrate: O=c1[nH]cnc2c1ncn2[C@@H]1OC(COP(=O)(O)OP(=O)(O)OCC2OC(Oc3ccc([N+](=O)[O-])cc3)[C@H](O)[C@@H]2O)[C@@H](O)[C@H]1O; assay: purified protein, by the assay type; conditions: other: hARH3
[11] = substrate: O=c1cc(C(F)(F)F)c2ccc(O[C@H]3O[C@H](COP(=O)(O)OP(=O)(O)OC[C@H]4O[C@@H](n5cnc6c(=O)[nH]cnc65)[C@H](O)[C@@H]4O)[C@@H](O)[C@H]3O)cc2o1; assay: purified protein, by the assay type; conditions: other: hARH3

T1 sequence (Q86W56 whole entry, the tested form may be a part): as the sequence (Q86W56 whole entry, the tested form may be a part) above

## Nc1ncnc2c1ncn2[C@@H]1O[C@H](COP(=O)(O)OP(=O)(O)OC[C@H]2NC[C@H](O)[C@@H]2O)[C@@H](O)[C@H]1O [ADP-HPD]
PARG [1]
  inhibition of PARG: inhibits both PARG and ARH3

## N=C(NCCCC(N)C(=O)O)NC1OC(COP(=O)(O)OP(=O)(O)OCC2OC(n3cnc4c(N)ncnc43)C(O)C2O)C(O)C1O (stereo not shown) [ADPr-Arg, ADP-ribosyl arginine]
ARH3 [2]
  Ki: 0.018 ± 0.002 µM
PARG [1]
  inhibition of PARG: markedly reduced activity against PARG

## Nc1ncnc2c1ncn2[C@@H]1O[C@H](COP(=O)(O)OP(=O)(O)OC[C@H]2O[C@H](Oc3ccc4c(C(F)(F)F)cc(=O)oc4c3)[C@H](O)[C@@H]2O)[C@@H](O)[C@H]1O [TFMU-ADPr]
[3]
  Vmax: 0.84 ± 0.05 µmol/min/mg
ARH3 [4]
  effect of ARH3 knockout on substrate hydrolysis: only partially decreased
[5]
  pKa of the leaving group: 7.26
[6]; hARH3
  Vmax: 1.61 ± 0.02 µmol/min/mg
T. thermophila PARG
  Vmax: 28.6 ± 0.6 µmol/min/mg

## O=c1cc(C(F)(F)F)c2ccc(O[C@H]3O[C@H](COP(=O)(O)OP(=O)(O)OC[C@H]4O[C@@H](n5cnc6c(=O)[nH]cnc65)[C@H](O)[C@@H]4O)[C@@H](O)[C@H]3O)cc2o1 [TFMU-IDPr]
PARG [7]; U2OS cell lysate, 200 μM TFMU-IDPr
  substrate hydrolysis in presence of PARG inhibitor PDD00017273: unaffected
[3]
  Km: > 1500 µM
ARH3 [8]
  ARH3 Activity: 153 ± 38 milli-units/min/μg
ARH3 [9]; A549 cell lysate
  ARH3 Activity: 67 ± 23 milli-units/min/μg
ARH3 [9]; D54 cell lysate
  ARH3 Activity: 147 ± 34 milli-units/min/μg
ARH3 [9]; Daudi cell lysate
  ARH3 Activity: 27 ± 35 milli-units/min/μg
ARH3 [9]; HCC38 cell lysate
  ARH3 Activity: 100 ± 19 milli-units/min/μg
ARH3 [9]; HCC1937 cell lysate
  ARH3 Activity: 76 ± 4 milli-units/min/μg
ARH3 [9]; HCT-116 cell lysate
  ARH3 Activity: 173 ± 17 milli-units/min/μg
ARH3 [9]; HEK cell lysate
  ARH3 Activity: 192 ± 20 milli-units/min/μg
ARH3 [9]; HFF-1 cell lysate
  ARH3 Activity: 105 ± 20 milli-units/min/μg
ARH3 [9]; HeLa cell lysate
  ARH3 Activity: 159 ± 18 milli-units/min/μg
ARH3 [9]; HepG2 cell lysate
  ARH3 Activity: 215 ± 19 milli-units/min/μg
ARH3 [9]; Hs578t cell lysate
  ARH3 Activity: 170 ± 34 milli-units/min/μg
ARH3 [9]; Jurkat cell lysate
  ARH3 Activity: 36 ± 7 milli-units/min/μg
ARH3 [9]; MCF 7 cell lysate
  ARH3 Activity: 92 ± 40 milli-units/min/μg
ARH3 [9]; MCF10A cell lysate (grown with cholera toxin)
  ARH3 Activity: −5 ± 12 milli-units/min/μg
ARH3 [9]; MIA PaCa-2 cell lysate
  ARH3 Activity: 157 ± 25 milli-units/min/μg
ARH3 [9]; SK-MEL-5 cell lysate
  ARH3 Activity: 87 ± 13 milli-units/min/μg
ARH3 [9]; T98G cell lysate
  ARH3 Activity: 139 ± 7 milli-units/min/μg
ARH3 [9]; U87 cell lysate
  ARH3 Activity: 290 ± 52 milli-units/min/μg
ARH3 [9]; U937 cell lysate
  ARH3 Activity: 137 ± 34 milli-units/min/μg
ARH3 [4]
  effect of ARH3 knockout on substrate hydrolysis: near complete loss
[6]; human ARH3 over human PARG, FIG. 2C
  selectivity for processing by ARH3 over PARG: confirmed
T. thermophila PARG
  Km: > 1500 µM

## Nc1ncnc2c1ncn2[C@@H]1O[C@H](COP(=O)(O)OP(=O)(O)OC[C@H]2O[C@@H](Oc3ccc([N+](=O)[O-])cc3)[C@H](O)[C@@H]2O)[C@@H](O)[C@H]1O [pNP-ADPr]
[5]
  pKa of the leaving group: 7.15
[6]; hARH3
  Km: 3.2 ± 0.6 µM
  Vmax: 1.7 ± 0.1 µmol/min/mg
[6]; hARH3, FIG. 5D
  stereoselectivity of hydrolysis, α versus β anomer: selectively hydrolyzed the α anomer of pNP-ADPr over the β anomer
T. thermophila PARG
  Km: 210 ± 10 µM
  Vmax: 16.9 ± 0.5 µmol/min/mg
T. thermophila PARG; FIG. 5C
  stereoselectivity of hydrolysis, α versus β anomer: selectively hydrolyzed the α anomer of pNP-ADPr over the β anomer

## O=c1[nH]cnc2c1ncn2[C@@H]1OC(COP(=O)(O)OP(=O)(O)OCC2OC(Oc3ccc([N+](=O)[O-])cc3)[C@H](O)[C@@H]2O)[C@@H](O)[C@H]1O (stereo partly shown) [pNP-IDPr]
T. thermophila PARG
  Km: > 1500 µM

## PDD00017273 [reference compound]
PARG [7]; ARH3−/− U2OS cell lysate, 200 μM TFMU-ADPr
  inhibition of TFMU-ADPr hydrolysis: completely abolished

B1: H. sapiens full length ARH3 (Homo sapiens) (protein)
chain: T2 sequence (Q9NX46 1-363)
[10]
  Km: 410 ± 20 µM
  Vmax: 5.2 µmol/min/mg
[11]
  Km: 312 ± 30 µM
  Vmax: 1.79 µmol/min/mg

Reference: US12235275B2, “Fluorescent substrates for poly(ADP-ribosyl) hydrolases” (The Board of Trustees of the University of Illinois, priority 2018, dated 2025)
